Measurements as given in patent publication US20220339180A1, “Methods And Compositions For Treating Viral Diseases Using Combination Of Drugs” (priority 2021, published 2022).
Read-outs that look alike come from different tables or passages of the source.

Experiments:
human Akt2 [1] = biological target: T1, human Akt2 (Homo sapiens, UniProt P31751); settings: read-out: Km for ATP; human Akt2, previously reported studies; cited from earlier work
human Akt2 [2] = biological target: T1, human Akt2; test: ADP-Glo Kinase assay, human Akt2; format: biochemical; settings: 500 nM compound, excess of ATP
CoV-2 RdRp = CoV-2 RdRp (Severe acute respiratory syndrome coronavirus 2, UniProt P0DTD1); format: biochemical, SARS-CoV-2
SARS-CoV-2 = format: cell-based
[3] = substrate: Nc1ncnc2c1ncn2[C@@H]1O[C@H](COP(=O)(O)OP(=O)(O)OP(=O)(O)O)[C@@H](O)[C@H]1O; test: purified protein, by the assay type; settings: other: human Akt2

## Nc1ncnc2c1ncn2[C@@H]1O[C@H](COP(=O)(O)OP(=O)(O)OP(=O)(O)O)[C@@H](O)[C@H]1O [ATP, Adenosine triphosphate]
Human Akt2 [1]
  Km: ~350 µM

## CN(C)S(=O)(=O)c1ccc2c(c1)/C(=C/c1cc3c([nH]1)CCCC3)C(=O)N2 [SU6656]
Human Akt2 [2]
  inhibition of kinase activity of human Akt2: significantly inhibited
CoV-2 RdRp
  inhibition of kinase like activity of CoV-2 RdRp: significantly abrogated

## CNC(=O)c1cc(Oc2ccc(NC(=O)Nc3ccc(Cl)c(C(F)(F)F)c3)cc2)ccn1 [Sorafenib]
Human Akt2 [2]
  inhibition of kinase activity of human Akt2: significantly inhibited
SARS-CoV-2; 1, 5, 25 and 50 μM, concentrations similar to Remdesivir
  cell survival of SARS-CoV-2 infected epithelial cells: improves cell survival
SARS-CoV-2; 1-50 μM, Remdesivir as control
  reduction in the infection: significant reduction in the infection
SARS-CoV-2; Sorafenib 4 μM or remdesivir 1 μM alone
  clearing of virus from infected cells, single agent: have effect to clear the virus
SARS-CoV-2; ex-vivo SARS-CoV-2 infection in cell line
  viral load: significantly reduces viral load

## CC(Cc1ccc(O)c(O)c1)C(C)Cc1ccc(O)c(O)c1 (stereo not drawn) [compound 4534, Nordihydroguaiaretic acid]
CoV-2 RdRp
  inhibition of kinase like activity of CoV-2 RdRp: failed to inhibit

## NC(=O)c1ncn([C@@H]2O[C@H](COP(=O)(O)OP(=O)(O)OP(=O)(O)O)[C@@H](O)[C@H]2O)n1 [compound 122108, Ribavirin 5′-triphosphate]
CoV-2 RdRp; 500 nM compound, excess of ATP
  inhibition of kinase like activity of CoV-2 RdRp: very little effects
CoV-2 RdRp; 1000 nM compound
  inhibition of kinase like activity of CoV-2 RdRp: conspicuous inhibitions

B1: human Akt2 (Homo sapiens) (protein)
chain: MNEVSVIKEGWLHKRGEYIKTWRPRYFLLKSDGSFIGYKERPEAPDQTLPPLNNFSVAECQLMKTERPRPNTFVIRCLQWTTVIERTFHVDSPDEREEWMRAIQMVANSLKQRAPGEDPMDYKCGSPSDSSTTEEMEVAVSKARAKVTMNDFDYLKLLGKGTFGKVILVREKATGRYYAMKILRKEVIIAKDEVAHTVTESRVLQNTRHPFLTALKYAFQTHDRLCFVMEYANGGELFFHLSRERVFTEERARFYGAEIVSALEYLHSRDVVYRDIKLENLMLDKDGHIKITDFGLCKEGISDGATMKTFCGTPEYLAPEVLEDNDYGRAVDWWGLGVVMYEMMCGRLPFYNQDHERLFELILMEEIRFPRTLSPEAKSLLAGLLKKDPKQRLGGGPSDAKEVMEHRFFLSINWQDVVQKKLLPPFKPQVTSEVDTRYFDDEFTAQSITITPPDRYDSLGLLELDQRTHFPQFSYSASIRE
[3]
  Km: 300 µM
